According to article PMC9293070, “Bioisosteric Modification of To042: Synthesis and Evaluation of Promising Use‐Dependent Inhibitors of Voltage‐Gated Sodium Channels” (Chemmedchem, 2021):
Structures can show the parent of a compound that is named as a salt. Where two headings read alike, the source gives them in different places.

Assays:
hNav1.4 [1] = target: T1, hNav1.4 (Homo sapiens, UniProt P35499); assay: Patch-clamp block of hNav1.4 sodium currents in HEK293T cells; format: cell-based; conditions: for IC50: HEK293T cells, value ± standard error of the fit; for TB/PB (ratio IC50 tonic block/IC50 phasic block): use-dependence
Experimental: Patch clamp experiments. Exploratory compounds were tested on sodium currents recorded in HEK293T cells (human embryonic kidney cell line) permanently expressing the wild‐type human Nav1.4 sodium channel, as previously described.[14, 61] Whole‐cell sodium currents were recorded at room temperature (∼22 °C) using Axon hardware and software (Axon Instruments Inc., Union City, CA, USA). Bath solution contained (mM): 150 NaCl, 4 KCl, 2 CaCl2, 1 MgCl2, 5 HEPES and 5 glucose (pH 7.4). Pipette solution contained (mM): 120 CsF, 10 CsCl, 10 NaCl, 5 EGTA, and 5 HEPES (pH 7.2). Pipette resistance was […]. Stabilization of the whole‐cell configuration was allowed for 5 minutes before to record sodium currents elicited from a holding potential of −120 mV using 25 ms‐long test pulses at −30 mV applied every 10 or 0.1 sec (0.1 and 10 Hz frequencies). The patched cell was continuously perfused by control or drug‐supplemented bath solution. To limit errors due to rundown and voltage‐dependence shifts, no more than two drug concentrations were tested on each cell. The I DRUG/I CTRL ratio (mean±S.E.M. from at least 3 cells) was plotted against drug concentration.
The half‐maximum inhibitory concentration (IC50) and slope factor (nH) are given with the standard error of the fit.

HeLa cells [2] = assay: Mitochondrial ROS production by DHR staining, flow cytometry; format: cell-based, human; conditions: 50 μM, compared with 13 a
Experimental: (§1) Cell culture. Cervical cancer cell lines (HeLa) were cultured in Dulbecco's modified eagle medium (DMEM) supplemented with 10 % fetal bovine serum (FBS), 1 % glutamine, and 1 % penicillin/streptomycin (all purchased from Euroclone, Italy) in a humidified incubator at 37 °C and 5 % CO2 and 95 % relative humidity.
(§2) Flow cytometry analysis. In order to detect ROS production after drugs treatment,[66, 67] cells at 3×10^5 cells were seeded in 6‐well plates in DMEM with 10 % FBS and cultured overnight. The following day, cells were washed twice with PBS and kept in DMEM without FBS for 2 h. […] Antibiotics were omitted during pharmacological compound assays. After incubation period, cells were washed twice with HBSS, and stained with 5 μM of 2′,7′‐dichorofluorescein (DCFA‐DA) and dihydrorhodamine (DHR) (Thermo Fischer Scientific, Italy) for 30 min in dark. After washing, cells were resuspended in HBSS and analyzed using an Attune Acoustic Focusing Cytometer (Thermo Fisher Scientific) equipped with a 488 nm laser. Thereafter, DCFA‐DA stained cells were co‐stained with 1 μg/mL of 7‐aminoactinomycin D (7‐AAD) (Thermo Fischer Scientific, Italy), incubated on ice for 45 min in dark in order to asses viable and non‐viable cells, and then flow cytometry analysis was carried out.

[3] = Apparent permeability across Caco-2 monolayer (BA and AB); format: in vitro ADME; conditions: human, 120 min, HBSS pH 7.4; for Papp A→B at 120 min, 100 µM: Apical-to-Basolateral; for Papp B→A at 120 min, 100 µM: Basolateral-to-Apical
Experimental: (§3) Permeability experiments. Details for permeability experiments. Preparation of Caco‐2 monolayer. This procedure has been previously reported by Colabufo et al.[65] Briefly, Caco‐2 cells were harvested with trypsin‐EDTA and seeded onto MultiScreen Caco‐2 assay system at a density of 10,000 cells per well. The culture medium was replaced every 48 h for the first 6 days and every 24 h thereafter. After 21 days in culture, the Caco‐2 monolayer was utilized for the permeability experiments. The Trans Epithelial Electrical Resistance (TEER) of the monolayers was measured daily before and after the experiment using an epithelial voltohmmeter (Millicell®‐ERS; Millipore, Billerica, MA). […] Drug transport experiment. […] Drugs were dissolved in Hanks’ balanced salt solution (HBSS, pH 7.4) and sterile filtered. After 21 days of cell growth, the medium was removed from filter wells and from the receiver plate. The wells were filled with 75 μL of fresh HBSS buffer and the receiver plate with 250 μL per well of the same buffer. This procedure was repeated twice, and the plates were incubated at 37 °C for 30 min. After incubation, the HBSS buffer was removed and drug solutions added to the filter well (75 μL). HBSS without the drug was added to the receiver plate (250 μL). The plates were incubated at 37 °C for 120 min. After incubation, samples were removed from the apical (filter well) and basolateral (receiver plate) sides of the monolayer and stored at −20 °C up to analysis. Compounds were lyophilized at −52 °C and 0.06 bars for 24 h and desalted by adding 500 μL of CH3CN (in order to remove phosphate salts coming from HBSS), then 500 μL of Ammonium Acetate (50 mM, pH 5) were added. The resulting solutions were analyzed by ESI‐MS in order to determine the concentration of drug in the samples. The concentration of tested compounds was measured using UV spectroscopy. The apparent permeability (P app), in units of nm per second, was calculated using the following equation: […]
(§4) where V A is the volume (in mL) in the acceptor well; Area is the surface area of the membrane (0.11 cm^2 of the well); time is the total transport time in seconds (7200 s); [drug]acceptor is the concentration of the drug measured by ESI‐MS analyses or UV spectroscopy; [drug]initial is the initial drug concentration (1 ⋅ 10^−4 M) in the apical or basolateral wells.

P-gp = assay: as above; format: in vitro ADME; conditions: human, pH 7.4; ratio of Papp BA to Papp AB
Experimental: as §3, §4

HeLa cells [4] = assay: Cell viability by 7-AAD co-staining, flow cytometry; format: cell-based, human; conditions: 1 and 50 μM, 24 h
Experimental: as §1, §2

HeLa cells [5] = assay: ROS production by DCF staining, flow cytometry; format: cell-based, human
Experimental: as §1, §2

hNav1.4 [6] = target: T1, hNav1.4; conditions: cited from earlier work
[7] = 0.1 Hz stimulation, read-out: Tonic Block IC50 at 0.1 Hz
[8] = 10 Hz stimulation, read-out: Phasic Block IC50 at 10 Hz

T1 sequence (P35499 whole entry): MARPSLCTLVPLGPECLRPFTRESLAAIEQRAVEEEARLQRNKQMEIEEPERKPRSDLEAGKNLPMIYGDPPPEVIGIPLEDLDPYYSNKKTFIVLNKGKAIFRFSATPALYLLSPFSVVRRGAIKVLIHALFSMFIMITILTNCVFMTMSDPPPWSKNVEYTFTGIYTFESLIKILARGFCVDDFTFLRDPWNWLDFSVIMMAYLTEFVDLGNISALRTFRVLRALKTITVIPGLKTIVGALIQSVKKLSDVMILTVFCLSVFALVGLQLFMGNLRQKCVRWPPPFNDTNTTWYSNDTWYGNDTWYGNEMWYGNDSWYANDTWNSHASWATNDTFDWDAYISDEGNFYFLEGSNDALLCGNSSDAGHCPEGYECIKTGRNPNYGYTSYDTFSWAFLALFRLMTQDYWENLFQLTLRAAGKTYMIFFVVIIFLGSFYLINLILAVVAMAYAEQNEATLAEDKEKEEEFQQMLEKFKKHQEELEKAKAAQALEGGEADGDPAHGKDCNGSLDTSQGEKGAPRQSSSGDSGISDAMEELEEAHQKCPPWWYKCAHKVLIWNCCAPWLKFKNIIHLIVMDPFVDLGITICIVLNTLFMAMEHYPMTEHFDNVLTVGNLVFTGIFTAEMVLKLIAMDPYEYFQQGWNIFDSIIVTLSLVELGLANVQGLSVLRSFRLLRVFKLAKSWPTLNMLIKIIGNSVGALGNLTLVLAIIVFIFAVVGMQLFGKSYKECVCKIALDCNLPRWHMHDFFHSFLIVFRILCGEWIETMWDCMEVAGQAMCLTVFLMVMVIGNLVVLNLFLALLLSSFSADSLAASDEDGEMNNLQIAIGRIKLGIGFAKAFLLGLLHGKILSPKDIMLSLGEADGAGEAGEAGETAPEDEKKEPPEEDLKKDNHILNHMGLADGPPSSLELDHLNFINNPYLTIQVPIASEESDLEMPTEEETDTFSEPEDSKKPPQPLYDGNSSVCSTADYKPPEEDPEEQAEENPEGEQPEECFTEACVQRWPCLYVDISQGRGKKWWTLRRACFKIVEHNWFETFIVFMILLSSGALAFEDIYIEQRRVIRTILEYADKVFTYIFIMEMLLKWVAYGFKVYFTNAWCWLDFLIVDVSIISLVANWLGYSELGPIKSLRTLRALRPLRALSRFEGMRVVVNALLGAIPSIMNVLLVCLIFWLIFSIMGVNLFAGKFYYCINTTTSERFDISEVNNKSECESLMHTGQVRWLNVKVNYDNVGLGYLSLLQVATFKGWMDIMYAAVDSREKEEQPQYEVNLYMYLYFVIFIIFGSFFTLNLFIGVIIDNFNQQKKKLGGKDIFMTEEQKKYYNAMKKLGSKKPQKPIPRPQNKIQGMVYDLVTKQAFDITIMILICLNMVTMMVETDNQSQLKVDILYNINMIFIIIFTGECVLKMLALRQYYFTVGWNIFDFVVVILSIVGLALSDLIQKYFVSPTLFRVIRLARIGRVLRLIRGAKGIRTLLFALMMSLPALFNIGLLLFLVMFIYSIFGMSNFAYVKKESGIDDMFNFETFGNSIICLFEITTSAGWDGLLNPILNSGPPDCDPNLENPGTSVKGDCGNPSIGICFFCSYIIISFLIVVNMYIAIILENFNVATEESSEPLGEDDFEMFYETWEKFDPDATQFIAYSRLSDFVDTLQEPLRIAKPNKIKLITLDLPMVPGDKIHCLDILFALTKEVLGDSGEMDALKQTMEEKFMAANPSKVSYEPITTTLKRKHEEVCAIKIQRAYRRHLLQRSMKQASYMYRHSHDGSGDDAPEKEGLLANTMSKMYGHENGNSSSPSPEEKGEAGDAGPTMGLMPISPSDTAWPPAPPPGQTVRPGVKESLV

SMILES | melting point [°C] | nH (slope factor), tonic block (hNav1.4 [1]; 0.1 Hz stimulation) | IC50 (hNav1.4 [1]; [7]) [µM] | nH (slope factor), phasic block (hNav1.4 [1]; 10 Hz stimulation) | IC50 (hNav1.4 [1]; [8]) [µM] | TB/PB (ratio IC50 tonic block/IC50 phasic block) (hNav1.4 [1]) | Papp A→B at 120 min, 100 µM [3] [×10⁻⁶ cm/s] | Papp B→A at 120 min, 100 µM [3] [×10⁻⁶ cm/s] | efflux ratio at 120 min, 100 µM (P-gp) | nH (slope factor), tonic block (hNav1.4 [6]; 0.1 Hz stimulation) | nH (slope factor), phasic block (hNav1.4 [6]; 10 Hz stimulation) | also measured
Cc1cccc(C)c1OCCC(C)NCc1ccc2ccccc2c1 (stereo not drawn) (as salt: hydrochloride) [17 b, N‐[(Naphthalen‐2‐yl)methyl]‐4‐[(2,6‐dimethyl)phenoxy]butan‐2‐amine] | 178 to 179 | – | – | – | – | – | – | – | – | – | – | –
Cc1cccc(C)c1OCCC(C)NCc1cccc2ccccc12 (stereo not drawn) [17 a, N‐[(Naphthalen‐1‐yl)methyl]‐4‐[(2,6‐dimethyl)phenoxy]butan‐2‐amine] | – | 1.2±0.2 | 1080 ± 150 | 0.8±0.1 | 57 ± 8 | 18.9 | 25.9 | 180 | 7.1 | – | – | fold higher IC50 value at 10 Hz than To042 (hNav1.4 [1]; 10 Hz, relative to To042): 6 fold; mitochondrial ROS levels (DHR) (HeLa cells [2]): lower ROS levels; percentage of mitochondrial ROS producing cells (DHR) (HeLa cells [2]): lower percentage of ROS producing cells; cellular viability (7-AAD positive cells untreated related) (HeLa cells [4]): not affected; percentage of ROS producing cells related to untreated cells (% DCF (+) cells) (HeLa cells [5]; 1 μM, 6 h exposure): no significant effects; percentage of ROS producing cells related to untreated cells (% DCF (+) cells) (HeLa cells [5]; 50 μM, 6 h exposure): significant cytoprotective effect; ROS production related to untreated cells (DCF fluorescence median) (HeLa cells [5]; 50 μM, 24 h exposure): ~3 fold; percentage of ROS producing cells related to untreated cells (% DCF (+) cells) (HeLa cells [5]; 24 h exposure, regardless of concentrations (1 and 50 μM)): prominent cytoprotective effect
Cc1cccc(C)c1NC(=O)CC(C)NCc1ccc2ccccc2c1 (stereo not drawn) (as salt: hydrochloride) [13 b, N‐(2,6‐Dimethylphenyl)‐3‐[(naphthalen‐2‐ylmethyl)amino]butanamide] | 199 to 201 | – | – | – | – | – | – | – | – | – | – | –
Cc1cccc(C)c1NC(=O)C(C)N (stereo not drawn) [tocainide] | – | – | – | – | – | – | 49.6 | 196 | 3.9 | 1.0±0.1 | 1.1±0.2 | IC50 (hNav1.4 [6]; [7]): 700 ± 70 µM; IC50 (hNav1.4 [6]; [8]): 182 ± 24 µM; TB/PB (ratio IC50 tonic block/IC50 phasic block) (hNav1.4 [6]; use-dependence): 3.8
Cc1cccc(C)c1OCC(C)N (stereo not drawn) [mexiletine] | – | – | – | – | – | – | – | – | – | 1.2±0.1 | 0.9±0.1 | IC50 (hNav1.4 [6]; [7]): 256 ± 25 µM; IC50 (hNav1.4 [6]; [8]): 46 ± 5 µM
Cc1cccc(C)c1NC(=O)CC(C)NCc1ccc2ccccc2c1 (stereo not drawn) [13 b, N‐(2,6‐Dimethylphenyl)‐3‐[(naphthalen‐2‐ylmethyl)amino]butanamide] | – | 1.1±0.1 | 147 ± 12 | 0.8±0.1 | 14 ± 1.8 | 10.5 | 43.8 | 216 | 4.9 | – | – | –
Cc1cccc(C)c1OCCC(C)NCc1cccc2ccccc12 (stereo not drawn) (as salt: hydrochloride) [17 a, N‐[(Naphthalen‐1‐yl)methyl]‐4‐[(2,6‐dimethyl)phenoxy]butan‐2‐amine] | 183 to 184 | – | – | – | – | – | – | – | – | – | – | –
Cc1cccc(C)c1NC(=O)CC(C)NCc1cccc2ccccc12 (stereo not drawn) [13 a, N‐(2,6‐Dimethylphenyl)‐3‐[(naphthalen‐1‐ylmethyl)amino]butanamide] | – | – | – | – | – | – | 56.6 | 223 | – | 1.3±0.1 | 0.8±0.1 | –
Cc1cccc(C)c1OCCC(C)NCc1ccc2ccccc2c1 (stereo not drawn) [17 b, N‐[(Naphthalen‐2‐yl)methyl]‐4‐[(2,6‐dimethyl)phenoxy]butan‐2‐amine] | – | 0.9±0.1 | 88 ± 11 | 1.1±0.1 | 8.8 ± 0.6 | 10 | 49.6 | 199 | 4 | – | – | –
